pIC50: −log10 of the molar value.
biological target: CD73 (Homo sapiens (Human), UniProt P21589); assay: Biochemical Assay (CD73 inhibition, AMP hydrolysis, Malachite Green readout); conditions: CD73 0.3208 nM, AMP 15 μM, Tris-HCl pH 7.4, Malachite Green absorbance
Sequence (P21589 27-574): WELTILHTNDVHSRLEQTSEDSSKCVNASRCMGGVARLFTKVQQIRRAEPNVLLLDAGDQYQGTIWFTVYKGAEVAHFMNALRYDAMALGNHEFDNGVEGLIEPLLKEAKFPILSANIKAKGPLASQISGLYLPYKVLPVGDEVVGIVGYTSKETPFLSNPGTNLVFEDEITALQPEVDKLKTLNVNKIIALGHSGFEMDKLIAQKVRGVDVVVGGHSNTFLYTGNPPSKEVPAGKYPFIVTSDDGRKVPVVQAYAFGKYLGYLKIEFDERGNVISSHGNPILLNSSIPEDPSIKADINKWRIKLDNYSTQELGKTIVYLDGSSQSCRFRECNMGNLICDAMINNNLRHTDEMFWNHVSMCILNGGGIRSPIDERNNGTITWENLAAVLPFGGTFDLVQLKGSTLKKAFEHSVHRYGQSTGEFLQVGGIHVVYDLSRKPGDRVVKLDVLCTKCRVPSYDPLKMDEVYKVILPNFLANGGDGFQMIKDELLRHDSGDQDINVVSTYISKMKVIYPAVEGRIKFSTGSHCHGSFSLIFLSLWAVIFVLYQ

`O=P(O)(O)CS(=O)(=O)C[C@H]1O[C@@H](n2ncc3c(NCc4ccc(F)cc4)nc(Cl)nc32)[C@H](O)[C@@H]1O` [Example 117, (((((2S,3S,4R,5R)-5-(6-chloro-4-((4-fluorobenzyl)amino)-1H-pyrazolo[3,4-d]pyrimidin-1-yl)-3,4-dihydroxytetrahydrofuran-2-yl)methyl)sulfonyl)methyl)phosphonic acid] and `O=P(O)(O)CS(=O)(=O)C[C@H]1O[C@@H](n2nnc3c(NCc4ccccc4Cl)nc(Cl)nc32)[C@H](O)[C@@H]1O` [Example 118, (((((2S,3S,4R,5R)-5-(5-chloro-7-((2-chlorobenzyl)amino)-3H[1,2,3]triazolo[4,5-d]pyrimidin-3-yl)-3,4-dihydroxytetrahydrofuran-2-yl)methyl)sulfonyl)methyl)phosphonic acid] cannot be ordered by pIC50: ≥ 6.30 for the first, ≥ 6.30 for the second.

`O=P(O)(O)CS(=O)(=O)C[C@H]1O[C@@H](n2nnc3c(NCc4ccc(F)cc4)nc(Cl)nc32)[C@H](O)[C@@H]1O` [Example 119] and `O=P(O)(O)CS(=O)(=O)C[C@H]1O[C@@H](n2nnc3c(NCc4ccc(Cl)cc4)nc(Cl)nc32)[C@H](O)[C@@H]1O` [Example 120, (((((2S,3S,4R,5R)-5-(5-chloro-7-((4-chlorobenzyl)amino)-3H[1,2,3]triazolo[4,5-d]pyrimidin-3-yl)-3,4-dihydroxytetrahydrofuran-2-yl)methyl)sulfonyl)methyl)phosphonic acid] cannot be ordered by pIC50: ≥ 6.30 for the first, ≥ 6.30 for the second.

`O=P(O)(O)CS(=O)(=O)C[C@H]1O[C@@H](n2nnc3c(NC4Cc5ccccc5C4)nc(Cl)nc32)[C@H](O)[C@@H]1O` [Example 121, (((((2S,3S,4R,5R)-5-(5-chloro-7-((2,3-dihydro-1H-inden-2-yl)amino)-3H-[1,2,3]triazolo[4,5-d]pyrimidin-3-yl)-3,4-dihydroxytetrahydrofuran-2-yl)methyl)sulfonyl)methyl)phosphonic acid] and `O=P(O)(O)CS(=O)(=O)C[C@H]1O[C@@H](n2nnc3c(NCc4cccc(Cl)c4)nc(Cl)nc32)[C@H](O)[C@@H]1O` [Example 122] cannot be ordered by pIC50: ≥ 6.30 for the first, ≥ 6.30 for the second.

`O=P(O)(O)CS(=O)(=O)C[C@H]1O[C@@H](n2ncc3c(N[C@H]4CCc5ccccc54)nc(Cl)nc32)[C@H](O)[C@@H]1O` [Example 123, (((((2S,3S,4R,5R)-5-(6-chloro-4-(((S)-2,3-dihydro-1H-inden-1-yl)amino)-1H-pyrazolo[3,4-d]pyrimidin-1-yl)-3,4-dihydroxytetrahydrofuran-2-yl)methyl)sulfonyl)methyl)phosphonic acid] and `O=P(O)(O)COC[C@H]1O[C@@H](n2ncc3c(NCC4CCCC4)nc(Cl)nc32)[C@H](O)[C@@H]1O` [Example 124, ((((2R,3S,4R,5R)-5-(6-chloro-4-((cyclopentylmethyl)amino)-1H-pyrazolo[3,4-d]pyrimidin-1-yl)-3,4-dihydroxytetrahydrofuran-2-yl)methoxy)methyl)phosphonic acid] cannot be ordered by pIC50: ≥ 6.30 for the first, ≥ 6.30 for the second.

`O=P(O)(O)CS(=O)(=O)C[C@H]1O[C@@H](n2ncc3c(NC4CCCC4)nc(CO)nc32)[C@H](O)[C@@H]1O` [Example 125, (((((2S,3S,4R,5R)-5-(4-(cyclopentylamino)-6-(hydroxymethyl)-1H-pyrazolo[3,4-d]pyrimidin-1-yl)-3,4-dihydroxytetrahydrofuran-2-yl)methyl)sulfonyl)methyl)phosphonic acid] and `O=P(O)(O)CS(=O)(=O)C[C@H]1O[C@@H](n2ncc3c(NC4Cc5ccccc5C4)nc(Cl)nc32)[C@H](O)[C@@H]1O` [Example 126, (((((2S,3S,4R,5R)-5-(6-chloro-4-((2,3-dihydro-1H-inden-2-yl)amino)-1H-pyrazolo[3,4-d]pyrimidin-1-yl)-3,4-dihydroxytetrahydrofuran-2-yl)methyl)sulfonyl)methyl)phosphonic acid] cannot be ordered by pIC50: ≥ 6.30 for the first, ≥ 6.30 for the second.

`O=P(O)(O)CS(=O)(=O)C[C@H]1O[C@@H](n2ncc3c(NCc4ccc(Cl)cc4)nc(Cl)nc32)[C@H](O)[C@@H]1O` [Example 127, (((((2S,3S,4R,5R)-5-(6-chloro-4-((4-chlorobenzyl)amino)-1H-pyrazolo[3,4-d]pyrimidin-1-yl)-3,4-dihydroxytetrahydrofuran-2-yl)methyl)sulfonyl)methyl)phosphonic acid] and `CC1CCCC1Nc1nc(Cl)nc2c1cnn2[C@@H]1O[C@H](CS(=O)(=O)CP(=O)(O)O)[C@@H](O)[C@H]1O` (stereo partly drawn) [Example 128, (((((2S,3S,4R,5R)-5-(6-chloro-4-((2-methylcyclopentyl)amino)-1H-pyrazolo[3,4-d]pyrimidin-1-yl)-3,4-dihydroxytetrahydrofuran-2-yl)methyl)sulfonyl)methyl)phosphonic acid] cannot be ordered by pIC50: ≥ 6.30 for the first, ≥ 6.30 for the second.

`C[C@H](Nc1nc(Cl)nc2c1cnn2[C@@H]1O[C@H](CS(=O)(=O)CP(=O)(O)O)[C@@H](O)[C@H]1O)c1ccccc1Cl` [Example 129, (((((2S,3S,4R,5R)-5-(6-chloro-4-(((S)-1-(2-chlorophenyl)ethyl)amino)-1H-pyrazolo[3,4-d]pyrimidin-1-yl)-3,4-dihydroxytetrahydrofuran-2-yl)methyl)sulfonyl)methyl)phosphonic acid] and `O=P(O)(O)CS(=O)(=O)C[C@H]1O[C@@H](n2nnc3c(N[C@H]4CCc5ccccc54)nc(Cl)nc32)[C@H](O)[C@@H]1O` [Example 130, (((((2S,3S,4R,5R)-5-(5-chloro-7-(((S)-2,3-dihydro-1H-inden-1-yl)amino)-3H-[1,2,3]triazolo[4,5-d]pyrimidin-3-yl)-3,4-dihydroxytetrahydrofuran-2-yl)methyl)sulfonyl)methyl)phosphonic acid] cannot be ordered by pIC50: ≥ 6.30 for the first, ≥ 6.30 for the second.

Going from `CC(C)(O)c1nc(NC2CCCC2)c2cnn([C@@H]3O[C@H](COCP(=O)(O)O)[C@@H](O)[C@H]3O)c2n1` [Example 132, ((((2R,3S,4R,5R)-5-(4-(cyclopentylamino)-6-(2-hydroxypropan-2-yl)-1H-pyrazolo[3,4-d]pyrimidin-1-yl)-3,4-dihydroxytetrahydrofuran-2-yl)methoxy)methyl)phosphonic acid] to `COCCN(c1nc(Cl)nc2c1cnn2[C@@H]1O[C@H](CS(=O)(=O)CP(=O)(O)O)[C@@H](O)[C@H]1O)C1CCCC1` [Example 133], the pIC50 rises from < 6.00 to ≥ 6.30. The second is the more potent here.

`C[C@H]1CCC[C@H]1Nc1nc(Cl)nc2c1cnn2[C@@H]1O[C@H](CS(=O)(=O)CP(=O)(O)O)[C@@H](O)[C@H]1O` [Example 134, (((((2S,3S,4R,5R)-5-(6-chloro-4-(((1R,2S)-2-methylcyclopentyl)amino)-1H-pyrazolo[3,4-d]pyrimidin-1-yl)-3,4-dihydroxytetrahydrofuran-2-yl)methyl)sulfonyl)methyl)phosphonic acid] and `C[C@@H]1CCC[C@@H]1Nc1nc(Cl)nc2c1cnn2[C@@H]1O[C@H](CS(=O)(=O)CP(=O)(O)O)[C@@H](O)[C@H]1O` [Example 135, (((((2S,3S,4R,5R)-5-(6-chloro-4-(((1S,2R)-2-methylcyclopentyl)amino)-1H-pyrazolo[3,4-d]pyrimidin-1-yl)-3,4-dihydroxytetrahydrofuran-2-yl)methyl)sulfonyl)methyl)phosphonic acid] cannot be ordered by pIC50: ≥ 6.30 for the first, ≥ 6.30 for the second.

`O=P(O)(O)COC[C@H]1O[C@@H](n2ccc3c(NC4CCCC4)nc(Cl)nc32)[C@H](O)[C@@H]1O` [Example 137, ((((2R,3S,4R,5R)-5-(2-chloro-4-(cyclopentylamino)-7H-pyrrolo[2,3-d]pyrimidin-7-yl)-3,4-dihydroxytetrahydrofuran-2-yl)methoxy)methyl)phosphonic acid] and `N#CC1(CNc2nc(Cl)nc3c2cnn3[C@@H]2O[C@H](COCP(=O)(O)O)[C@@H](O)[C@H]2O)CC1` [Example 138, ((((2R,3S,4R,5R)-5-(6-chloro-4-(((1-cyanocyclopropyl)methyl)amino)-1H-pyrazolo[3,4-d]pyrimidin-1-yl)-3,4-dihydroxytetrahydrofuran-2-yl)methoxy)methyl)phosphonic acid] cannot be ordered by pIC50: ≥ 6.30 for the first, ≥ 6.30 for the second.

“((((1R,2R,3S,4R)-4-(5-Chloro-7-(((R)-2,3-dihydro-1H-inden-1-yl)amino)-3H-[1,2,3]triazolo[4,5-d]pyrimidin-3-yl)-2,3-dihydroxycyclopentyl)methoxy)methyl)phosphonic acid [Example 23]” and “((((2R,3S,4R,5R)-5-(5-chloro-7-((3- chlorobenzyl)pamino)-3H[1,2,3]triazolo[4,5- d]pyrimidin-3-yl)-3,4- dihydroxytetrahydrofuran-2- yl)methoxy)methyl)phosphonic acid [Example 24]” cannot be ordered by pIC50: ≥ 6.30 for the first, ≥ 6.30 for the second.

Reference: patent US11377469B2, “CD73 inhibitors” (ORIC Pharmaceuticals, Inc., priority 2017, dated 2022)
